Assay results reported in patent publication US20260234144A1 (TAY THERAPEUTICS LIMITED, priority 2023, published 2026).

Test system: R223X stop codon in the mutated luciferase gene, ADXC8 luciferase reporter cell line
Assay: cells
Assay type: cell-based
Conditions: 24 h, ADXC8 cells, 24 hours; for Emax: read-out: Fold Over Control, maximum fold response relative to 200 μM G418; for EC (100% of 200 uM G418 response): read-out: pC100%, negative logarithm of the concentration giving the same response as 200 μM G418
Description: The read-through activity of compounds was assessed using the ADXC8 luciferase reporter cell line (generated as described in McElroy et al. PLoS Biology (2013), 11, e1001593). […] The amount of luciferase is measured by adding a lysis buffer containing luciferin substrate and detecting luminescence using the following protocol:
ADXC8 cells in assay media (DMEM+10% FBS) were seeded into 96-well tissue culture treated white plates (Greiner) to a density of 13,000 cells per well and incubated for 24 hours at 37° C. in an atmosphere of 5% CO2. […] Plates were incubated for a further 24 hours at 37° C. in an atmosphere of 5% CO2. Cells treated with 200 μM G418 (with 1% DMSO) were used as a positive control.
Cell viability and firefly luciferase activity were measured in the same assay wells. CellTiter-Fluor™ reagent was prepared as per manufacturer's instructions (Promega E7120) and 20 μl of 5× CellTiter-Fluor™ reagent was added to all wells, briefly mixed by orbital shaking (300-500 rpm for −30 seconds) and the plates incubated for 30-45 minutes at 37° C. in an atmosphere of 5% C02. Cell viability was measured by monitoring fluorescence on a CLARIOstar® plate reader (BMG Labtech). Cells containing 1% DMSO were used as a positive control and cells with 400 μM Doxorubicin were used as negative control to define 100 and 0% respectively. ONE-Glo™ luciferase assay buffer (Promega E7120) was prepared according to manufacturer's instructions and 100 μl of luciferase reagent was added to each well and the plate incubated at RT for 3 mins before measuring the luminescence on the CLARIOstar® plate reader (BMG Labtech). Cells treated with 200 μM G418 (with 1% DMSO) were used as a positive control and arbitrarily assigned a value of 100%. Cells treated with 1% DMSO were used as the negative control to define 0% response.
Concentration effect curves were analysed using non-linear regression using the CDD Vault from Collaborative Drug Discovery (Burlingame, CA). […] The bottom and top of the curves were constrained to 0 and the maximum measured response respectively. From the fitted curves, the software derived C100% values (the concentration giving the same response as 200 μM G418) for each compound. The negative logarithm of C100% is reported as pC100% (Table 1). In addition to pC100% values, the maximum fold response relative to 200 μM G418 (Fold over Control) was also captured (Table 1). A pC100% categorisation of ‘-’ in Table 1 represents examples in which a pC100% response was not reached when assayed at a concentration of 100 μM. A pC100% categorisation of ‘*’ in Table 1 represents examples in which a pC100% response was not reached when assayed at a concentration of 30 μM.

Row | SMILES | Emax | EC (100% of 200 uM G418 response)
1 | CN(C)Cc1cccc(-c2ccc3c(N)nc(NC4CCN(C)CC4)nc3n2)c1 [Example 76] | 100 to 3000% | 10 to 100 µM
2 | Cc1cc(C)c2c(NCc3ccccn3)nc(NC3CCN(C)CC3)nc2n1 [Example 317] | 100 to 3000% | 10 to 100 µM
3 | COCc1ccc(CN2CCC(Nc3nc(N)c4c(C)cc(C)nc4n3)CC2)cc1 [Example 488] | 100 to 3000% | 1 to 10 µM
4 | CNc1nc(N[C@H]2CN(C)C[C@H]2F)nc2nc(C)cc(C)c12 [Example 340] | 100 to 3000% | 1 to 10 µM
5 | CNc1nc(N[C@@H]2CCCNCC2)nc2nc(C)cc(C)c12 [Example 402] | – | 1 to 10 µM
6 | CN1CCC(Nc2nc(N)c3cc(C4CCCC4)cnc3n2)CC1 [Example 243, 6-cyclopentyl-N^2-(1-methylpiperidin-4-yl)pyrido[2,3-d]pyrimidine-2,4-diamine] | 100 to 3000% | 10 to 100 µM
7 | COc1ccccc1CN1CCC(Nc2nc(N)c3c(C)cc(C)nc3n2)CC1 [Example 426, N^2-(1-(2-methoxybenzyl)piperidin-4-yl)-5,7-dimethylpyrido[2,3-d]pyrimidine-2,4-diamine] | 100 to 3000% | 1 to 10 µM
8 | CN1CCC(Nc2nc(N)c3ccc(-c4ccccc4O)nc3n2)CC1 [Example 106] | 0 to 100% | > 100 µM
9 | CNc1cc(N[C@H]2CN(C)C[C@@H]2O)nc2nc3c(c(C)c12)CCC3 [Example 425, (3S,4S)-1-methyl-4-((5-methyl-4-(methylamino)-7,8-dihydro-6H-cyclopenta[b][1,8]naphthyridin-2-yl)amino)pyrrolidin-3-ol] | – | 0.1 to 1 µM
10 | Cc1cc(C)c2c(N)cc(NCCCN3CCOCC3)nc2n1 [Example 300] | 100 to 3000% | 1 to 10 µM
11 | Cc1cc(C)c2c(N)nc(NC3CCN(Cc4cccnc4)CC3)nc2n1 [Example 504] | 100 to 3000% | 1 to 10 µM
12 | Cc1nc2nc(NC3CCN(Cc4ccc(C#N)cc4F)CC3)nc(N)c2c2c1CCC2 [Example 527] | 100 to 3000% | 0.1 to 1 µM
13 | Cc1nc2nc(NC3CCN(Cc4ccncc4O)CC3)nc(N)c2c2c1CCC2 [Example 530] | 100 to 3000% | 0.1 to 1 µM
14 | Cc1c2c(nc3nc(N[C@H]4CNC[C@@H]4O)nc(N)c13)CCC2 [Example 582] | 100 to 3000% | 0.01 to 0.1 µM
15 | CN1CCC(Nc2nc(N)c3cc(-c4cncn4C)cnc3n2)CC1 [Example 643] | 0 to 100% | > 100 µM
16 | CN1CCC(Nc2nc(N)c3ccc(C(=O)O)nc3n2)CC1 [Example 236, 4-amino-2-((1-methylpiperidin-4-yl)amino)pyrido[2,3-d]pyrimidine-7-carboxylic acid] | 0 to 100% | > 100 µM
17 | Cc1cc(C)c2c(N)nc(N[C@H]3CNC[C@H]3C)nc2n1 [Example 351] | – | 1 to 10 µM
18 | CNc1nc(N[C@H]2CCCNCC2)nc2nc(C)cc(C)c12 [Example 387] | 100 to 3000% | 1 to 10 µM
19 | Cc1cc(C)c2c(N)nc(N[C@@H]3CCN(CC(F)(F)F)C3)nc2n1 [Example 311] | 0 to 100% | > 31.6 µM
20 | CN1CCC(Nc2nc(N)c3cccnc3n2)CC1 [Example 1, N^2-(1-methylpiperidin-4-yl)pyrido[2,3-d]pyrimidine-2,4-diamine] | 100 to 3000% | 10 to 100 µM
21 | Cc1cc(C)c2c(N)nc(NC3CCN(Cc4ccccc4)CC3)nc2n1 [Example 158] | 100 to 3000% | 0.1 to 1 µM
22 | Cc1cc(C)c2c(N)nc(NC3CCN(Cc4cccc(O)c4)CC3)nc2n1 [Example 506] | 100 to 3000% | 1 to 10 µM

Row | SMILES | Emax | EC (100% of 200 uM G418 response)
23 | CCNc1nc(N[C@H]2CNC[C@@H]2F)nc2nc(C)cc(C)c12 [Example 394] | – | 1 to 10 µM
24 | Cc1cc(C)c2c(N)nc(NC3CCN(Cc4ccc(C(=O)N(C)C)cc4)CC3)nc2n1 [Example 495] | 0 to 100% | > 31.6 µM
25 | CC(CO)c1ccc2c(N)nc(NC3CCN(C)CC3)nc2n1 (stereo not drawn) [Example 240, 2-(4-amino-2-((1-methylpiperidin-4-yl)amino)pyrido[2,3-d]pyrimidin-7-yl)propan-1-ol] | 0 to 100% | > 100 µM
26 | Cc1cc(C)c2c(N)nc(N[C@@H]3CNC[C@H]3O)nc2n1 [Example 302] | 100 to 3000% | 1 to 10 µM
27 | CNc1nc(NC2CCN(C)CC2)nc2ncccc12 [Example 39, N^4-methyl-N^2-(1-methylpiperidin-4-yl)pyrido[2,3-d]pyrimidine-2,4-diamine] | 100 to 3000% | 10 to 100 µM
28 | CN1CCC(Nc2nc(N)c3ccc(-c4cccc(C(N)=O)c4)nc3n2)CC1 [Example 70] | 100 to 3000% | 10 to 100 µM
29 | CNc1nc(N[C@@]2(C)CCN(C)C2)nc2nc(C)cc(C)c12 [Example 638] | 0 to 100% | > 31.6 µM
30 | Cc1cc(C)c2c(N)nc(N[C@H]3CCN(C)C3)nc2n1 [Example 15, (S)-5,7-dimethyl-N^2-(1-methylpyrrolidin-3-yl)pyrido[2,3-d]pyrimidine-2,4-diamine] | 100 to 3000% | 1 to 10 µM
31 | Cc1cc(C)c2c(N)nc(NC3CCCN(C)CC3)nc2n1 (stereo not drawn) [Example 179] | 100 to 3000% | 1 to 10 µM
32 | Cc1nc2nc(NC34CCN(CC3)CC4)nc(N)c2c2c1CCC2 [Example 272] | 100 to 3000% | 0.1 to 1 µM
33 | Cc1cc(C)c2c(N)nc(NC3CCN(Cc4ccccc4C#N)CC3)nc2n1 [Example 500] | 100 to 3000% | 1 to 10 µM
34 | CNc1nc(N[C@H]2CNC[C@H]2O)nc2nc(C)c3c(c12)CCC3 [Example 345] | 100 to 3000% | 10 to 100 µM
35 | CNc1nc(N[C@H]2CN(C3CCC3)C[C@H]2F)nc2nc(C)cc(C)c12 [Example 627] | 100 to 3000% | 10 to 100 µM
36 | Cc1cc(C)c2c(N)nc(NC3CCN(Cc4cccc(F)c4)CC3)nc2n1 [Example 466] | 100 to 3000% | 1 to 10 µM
37 | CNCCNc1nc(NC2CCN(C)CC2)nc2nc(C)cc(C)c12 [Example 330] | 0 to 100% | > 31.6 µM
38 | Cc1cc(C)c2c(N)nc(NC3CCN(Cc4c(F)cc(C#N)cc4F)CC3)nc2n1 [Example 551] | 100 to 3000% | 10 to 100 µM
39 | CSc1ccc(-c2ccc3c(N)nc(NC4CCN(C)CC4)nc3n2)cc1 [Example 103] | – | 1 to 10 µM
40 | Cc1cc(C)c2c(N)nc(NCCCN3CCS(=O)(=O)CC3)nc2n1 [Example 8, 4-(3-((4-amino-5,7-dimethylpyrido[2,3-d]pyrimidin-2-yl)amino)propyl)thiomorpholine 1,1-dioxide] | 0 to 100% | > 100 µM
41 | CNc1nc(N[C@H]2CNC[C@H]2O)nc2nc(C)cc(C)c12 [Example 326] | 0 to 100% | > 31.6 µM
42 | Cc1cc(C)c2c(N)nc(NCC3CC4(CNC4)C3)nc2n1 [Example 208] | 0 to 100% | > 31.6 µM
43 | Cc1cc(C)c2c(N)nc(NCC3CN(C)CCO3)nc2n1 (stereo not drawn) [Example 152] | 100 to 3000% | 10 to 100 µM
